Measurements published in US20130324606A1, “Ester Derivatives of Bimatoprost Compositions and Methods” (ALLERGAN, INC., priority 2011, published 2013).

How the values were obtained:
[1] = Formulation and stability studies; assay type: physicochemical; settings: variations of Formulation A, 0.03% active, pH 4, 5, 6 and 7; 25, 40 and 60° C.; zero time and 80-days
Description: Stability over time of compounds disclosed herein was determined in formulation as a function of temperature and pH. Variations of Formulation A described herein were employed wherein the target concentration of active agent was 0.03%, and the pH was varied at pH 4, 5, 6 and 7. Temperatures of 25° C., 40° C. and 60° C. were maintained during the experiment. Samples were evaluated at zero time and 80-days.
Cmpds IVa, IIIb, and IVb for evaluated for stability.
FIGS. 1A-1B, 2A-2B, and 3A-3B depict histograms of relative concentrations of test compounds (arbitrary scale) at zero time or 80-days. FIG. 1A depicts a histogram of the stability profile of Cmpd IVa as a function of pH and temperature. FIG. 1B depicts a histogram of the formation of bimatoprost as a function of pH and temperature after 80-days for Cmpd IVa. FIG. 2A depicts a histogram of the stability profile of Cmpd IVb as a function of pH and temperature. FIG. 2B depicts a histogram of the formation of bimatoprost as a function of pH and temperature after 80-days for Cmpd IVb. FIG. 3A depicts a histogram of the stability profile of Cmpd IIIb as a function of pH and temperature. FIG. 3B depicts a histogram of the formation of bimatoprost as a function of pH and temperature after 80-days for Cmpd IIIb.

[2] = tested on: reconstructed human epidermis (RHE); assay: In vitro dermal irritation screening in reconstructed human epidermis; assay type: cell-based; settings: concentration 0.03%, Formulation A vehicle
Description: In vitro irritation screening assays were conducted for compounds described herein. Test system was the reconstructed human epidermis (RHE), as known in the art. Single dosing was employed, and endpoints were evaluated as a function of time up to 24-hrs. Endpoints were tissue viability and IL-1α release.
Test compounds included Cmpds IVa (0.03%), IIIb (0.03%), IVb (0.03%), bimatoprost (0.03%), minoxidil (5%, foam), and minoxidil (5%, solution). Administration of Cmpds IVa, IIIb, IVb and bimatoprost employed the vehicle of Formulation A. See Table 1 above. Administration of minoxidil employed minoxidil vehicle with formulation 20% H2O, 50% propylene glycol, and 30% ethanol.

[3] = Dermal tolerability in rats; assay type: in vivo; settings: female rats; for change in food consumption and body weight gain (in words): 3 mg/kg/day daily for 8 days; for Body Weight Gain (g) Mean ± SD / Food Consumption (g) Mean ± SD: dermal 3 mg/kg/day daily for 8 days, Formulation A
Description: Female rats were administered either vehicle or one of Cmpds IVa, IIIb, or IVb daily for 8 days. The administered dose was 3 mg/kg/day, at a concentration of 3 mg/mL. Observed data were body weight, viability, food consumption, and dermal observation (skin reaction grading), as known in the art. The vehicle was Formulation A. See Table 1 above.

[4] = microAmes mutagenesis screen; assay type: cell-based; settings: with or without metabolic activation
From the text: Cmpds IVa, IIIb, and IVb were subjected to the microAmes screen, as known in the art.

[5] = tested on: C57Black/6J mice; assay: Piliation (hair regrowth) studies in mice; assay type: in vivo; settings: for pharmacological efficacy relative to bimatoprost: mouse hair regrowth, vehicle Formulation A; for days for hair growth to commence (day of onset of hair growth) / days for full hair growth to be achieved: 0.03%, topical QD 14 days, vehicle 50% propylene glycol, 30% ethanol, 20% water; for days for hair growth to commence (day of onset of hair growth): FIG. 6A; for days for full hair growth to be achieved: FIG. 6B
Description: C57Black/6J, 7-week old female mice (n=10) were employed in piliation studies. Dorsal hair was shaved (area ˜2 cm×4 cm). Dosing of active agent was once per day (QD) by topical administration for 14 days. Observations were conducted for 42-days to determine onset of new hair growth and day of hair growth completion. Compounds were formulated as either a) 50% propylene glycol, 30% ethanol, 20% water, or b) the formulation of Formulation A described above. The experiments reported for FIGS. 4A-4B, 5A-5B, 6A-6B, 8A-8B, and 9A-9B were conducted using a vehicle with formulation of 50% propylene glycol, 30% ethanol, 20% water. The experiments reported for FIGS. 7A-7B were conducted using a vehicle of Formulation A described above.
For each of FIGS. 4A, 5A, 6A, 7A, 8A and 9A, the histograms depict the day of onset of hair growth. For each of FIGS. 4B, 5B, 6B, 7B, 8B and 9B, the histograms depict the day achieving full hair growth.

[6] = tested on: mouse skin; assay: Pathology assessment of mouse hair regrowth model; assay type: in vivo, mice; settings: histology, 0.03% active, vehicle control still in growth phase
From the text: Histological samples from test subjects employed in the studies described in Example 12 were obtained for pathology assessment.

[7] = Pharmacokinetic assessment of mouse hair regrowth model; assay type: in vivo; settings: mice, 0.03% dermal daily ~60 uL, all measured time points, LC/MS-MS
Description: Female C57BL/6J mice (n=2) were assayed per time point per treatment group. Treatment groups: (1) vehicle; (2) 0.03% Cmpd IVa; (3) 0.03% Cmpd IIIb; (4) 0.03% Cmpd IVb; (5) 0.03% bimatoprost. Treatment dosing: dermal daily application of ˜60 uL test compound solution. Blood and skin pharmacokinetic time points were obtained at day 1 (1, 4, 8 and 24-hrs post-dose); day 2 (24-hrs post-dose); day 14 (24-hrs post-dose); and day 42 (28 days post day 14 dose). Bioanalysis employed LC/MS-MS.

[8] = In vitro human skin penetration (Franz diffusion chamber); assay type: in vitro ADME; settings: for skin penetration (cumulative amount in receptor solution) relative to bimatoprost / penetration flux relative to bimatoprost / Percentage Dose Applied, Receptor Chamber Solution, Prodrug / Percentage Dose Applied, Upper ⅓ Dermis, Prodrug: 0.03% in Formulation A; for skin penetration (cumulative amount in receptor solution) relative to bimatoprost: FIG. 13A; for penetration flux relative to bimatoprost: FIG. 13B; for Percentage Dose Applied, Receptor Chamber Solution, Prodrug: Franz chamber; for Percentage Dose Applied, Receptor Chamber Solution, Prodrug / Percentage Dose Applied, Upper ⅓ Dermis, Prodrug: dosed compound; for Percentage Dose Applied, Upper ⅓ Dermis, Prodrug: dermis at 48 hrs; for conversion to bimatoprost in the SC/Epi/Dermis layers: FIG. 15A; for amount of active agent in the upper third of the dermis relative to bimatoprost: FIG. 15B
From the text: Test material: Dermatomed ex vivo human cadaver posterior trunk skin on 1.0 cm^2 Franz diffusion chamber as known in the art. Test size: 3 skin donors (obtained from New York Firefighters Skin Bank), 3 replicates per donor per formulation. Test formulations: 0.03% active agent (Cmpd IVa, Cmpd IIIb, Cmpd IVb) in Formulation A; control formulation: bimatoprost at 0.03% in Formulation A. Dosing regimen: receptor fluid at 2, 4, 24, and 48 hrs; SC/epidermis and dermis at 48 hrs. Sample analysis: LC/MS-MS to detect bimatoprost and Cmpds IVa, IIIb and IVb.

[9] = Partitioning in artificial sebum; assay type: physicochemical; settings: for phase in which the majority of compound remains: artificial sebum / aqueous solution; for Ave. Ksebum (artificial sebum and water partition coefficient): n = 4, 16 hr at 37° C.
Description: Compounds bimatoprost, Cmpd IVa, and Cmpd IIIb were added to aqueous solution (1 mL, 2-20 ug/mL), with and without 1-20 mg artificial sebum. Samples were shaken for 16 hr at 37° C. Samples were then centrifuged (8000 RPM) for 15 min at room temperature, prior to collection of the aqueous solution. Samples were analyzed for concentration of compound without artificial sebum (i.e., Co) and with artificial sebum (i.e., Ci) by mass spectroscopy. Artificial sebum and water partition coefficient (Ksebum) was expressed as the concentration of drug in 1 g of artificial sebum divided by the concentration of drug in 1 g of aqueous solution, and was calculated as Ksebum=(Co−Ci)Waqueous/(Ci×Wsebum) (Eqn. 1), where W represents weight.
Artificial sebum was prepared as follows: 15% (w/w) squalene, 15% spermaceti, 10% coconut oil, 1.5% oleic acid, 5% palmitic acid, 2.4% cholesterol oleate, 10% paraffin wax, 10% olive oil, 25% cottonseed oil, 5% palmitoleic acid, 1.2% cholesterol. The melting point of the semi-liquid was 37° C.

[10] = In vitro human skin penetration (Franz diffusion chamber); assay type: in vitro ADME; settings: FIGS. 14A-14C, 6, 24, 48 hr
[11] = tested on: human hair dermal papilla cells, HHDPC; assay: Cellular dielectric spectroscopy (CDS) in dermal papilla cells; assay type: cell-based; settings: for EC50: cell impedance, tested range 10^−4 to 10^−13 mol/L
Description: Cellular dielectric spectroscopy (CDS) was conducted in an assay of dermal papilla cells (i.e., human hair dermal papilla cells, HHDPC) with bimatoprost and Cmpds IVc and IVb. As known in the art, CDS is a real-time, non-invasive, label-free, high-throughput, cell-based assay which measures electrical cell impedance. Without wishing to be bound by any theory, it is believed that GPCR activation induces changes in cell morphology, cell-cell interaction, and cell adherence which manifest as a change in cell impedance.

[12] = Compound distribution in mouse skin by MALDI-MS imaging; assay type: in vivo; settings: topical dermal, once daily 3 days, 4 hr after day-3 dosing
Description: In order to determine the penetration, accumulation and/or differential distribution of bimatoprost and compounds disclosed herein upon dermal administration, MALDI-MS (matrix assisted laser desorption ionization mass spectroscopy) imaging was conducted on explanted samples of mouse skin after topical dermal administration.
MALDI-MS imaging was conducted on mouse skin strips after administration of bimatoprost or compound disclosed herein once daily for 3 days. Samples of mouse skin were recovered 4 hr after day-3 dosing of compound. Dermal administration was conducted with vehicle, 0.03% bimatoprost, 3% bimatoprost, 0.03% Cmpd IVa, and 3% Cmpd IVa.
FIG. 16A depicts a typical explanted sample of mouse skin for these studies, wherein Cmpd IVa was applied via dermal administration. FIG. 16B depicts the result of MALDI-MS imaging. The intensity of each pixel within FIG. 16B reflects the concentration of Cmpd IVa at the corresponding point in the image depicted in FIG. 16A. FIG. 16C depicts a representative mass spectrum, corresponding to the region of FIG. 16B indicated by the white circle within FIG. 16B. Accordingly, each pixel of the image of FIG. 16B has an associated mass spectrum, providing the amounts of bimatoprost or other administered compound or metabolite thereof.

SMILES | stability in formulation [1] | potential for irritation of the human skin [2] | change in food consumption and body weight gain (in words) [3] | Body Weight Gain (g) Mean ± SD [3] [g] | Food Consumption (g) Mean ± SD [3] [g] | mutagenicity in microAmes screen [4] | pharmacological efficacy relative to bimatoprost [5] | hair cycle phase at day-42 [6] | level in the systemic circulation [7] | skin penetration (cumulative amount in receptor solution) relative to bimatoprost [8] | penetration flux relative to bimatoprost [8] | Percentage Dose Applied, Receptor Chamber Solution, Prodrug [8] [Percentage Dose Applied] | Percentage Dose Applied, Upper ⅓ Dermis, Prodrug [8] [Percentage Dose Applied] | conversion to bimatoprost in the SC/Epi/Dermis layers [8] | amount of active agent in the upper third of the dermis relative to bimatoprost [8] | phase in which the majority of compound remains [9] | Ave. Ksebum (artificial sebum and water partition coefficient) [9] | conversion to bimatoprost in the receptor chamber solution [10] | change in cell impedance [11] | EC50 [11] | further results
CCNC(=O)CCC/C=C\C[C@@H]1[C@@H](/C=C/[C@@H](O)CCc2ccccc2)[C@H](OC(=O)CC)C[C@@H]1O [Cmpd IIIb, 11-propionyl bimatoprost] | stable in formulation | no indication of potential for irritation | no significant change in food consumption or body weight gain | 10.0 ± 6.1 | 22.8 ± 1.36 | not mutagenic | approximately equivalent efficacy | returned to the resting phase | most undetectable | significantly greater than for bimatoprost | greater than that for bimatoprost | 0.8 | 2.1 | converted to bimatoprost | less than observed for bimatoprost | remain in the aqueous phase | 6.1 | observed to convert to bimatoprost |  |  | dermal observation: signs of irritation ([3]; 3 mg/kg/day, days 2-4): minimal and transient signs of irritation
CCNC(=O)CCC/C=C\C[C@@H]1[C@@H](/C=C/[C@H](CCc2ccccc2)OC(=O)CC)[C@H](O)C[C@@H]1O [Cmpd IVb, 15-propionyl-bimatoprost] | stable in formulation | no indication of potential for irritation | decreases in both food consumption and body weight gain | 0.3 ± 6.7 | 19.19 ± 1.32 | not mutagenic | approximately equivalent efficacy | returned to the resting phase | most undetectable | significantly greater than for bimatoprost | greater than that for bimatoprost | 2.1 | 1.9 | converted to bimatoprost | less than observed for bimatoprost |  |  | observed to convert to bimatoprost | not observed to provide a change in cell impedance | could not be determined | days for hair growth to commence (day of onset of hair growth) [5]: 16 days; days for full hair growth to be achieved [5]: 32 days; activity in the time required to regain full hair growth (ranking) ([5]; among compounds tested at 0.03%): best activity
CCNC(=O)CCC/C=C\C[C@@H]1[C@@H](/C=C/[C@@H](O)CCc2ccccc2)[C@H](O)C[C@@H]1O [bimatoprost, (Z)-7-((1R,2R,3R,5S)-3,5-dihydroxy-2-((S,E)-3-hydroxy-5-phenylpent-1-enyl)cyclopentyl)-N-ethylhept-5-enamide] |  |  |  |  |  |  |  | returned to the resting phase | most undetectable |  |  | 1.1 | 7.0 |  |  | remain in the aqueous phase | 3.6 |  | characteristic change in cell impedance | 3.0 to 6.3×10^−7 mol/L | days for hair growth to commence (day of onset of hair growth) [5]: 22 days; days for full hair growth to be achieved [5]: 44 days; levels of bimatoprost in skin after 3.0% bimatoprost versus after 3.0% Cmpd IVa [12]: much higher
